Reference: the METLIN SMRT retention time set (Domingo-Almenara et al. 2019)

test: gradient 5% acetonitrile 3 min, to 50% in 2 min, to 85% in 15 min, held 3 min, 100 µL/min; details: column: Zorbax Extend-C18 2.1 x 50 mm; eluents: water / acetonitrile, 0.1% formic acid
Summary of the method: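 Over 3 months, pure standards in mixtures of ~100 molecules were run by HPLC coupled to a quadrupole time-of-flight mass spectrometer in positive and negative ionization mode. The column was a Zorbax Extend-C18 (2.1 × 50 mm, 1.8 μm) at 100 μL/min, eluted with water and acetonitrile each holding 0.1% formic acid, with 40 μL dead and 900 μL dwell volumes. Retention time was determined from adduct peaks chosen by software and checked manually.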

Compared with Cc1cc(C)n(-c2nc(CC(=O)N3CCc4ccccc4C3)cs2)n1, Cc1cc(S(=O)(=O)N2C[C@@H](F)C[C@H]2C(=O)N2CCc3ccccc3C2)ccc1F is lower in RP-LC retention time: 970 s for the first, 959 s for the second.

Compared with Cc1cc(N2CCN(C)CC2)nc2ccc(NC(=S)NCCN3CCc4ccccc4C3)cc12, COc1ccc(NC(=O)CSc2cc(N3CCN(c4ccccc4OC)CC3)ncn2)cc1OC is higher in RP-LC retention time: 538 s for the first, 814 s for the second.

First: COc1ccc(NC(=O)N2CCc3c(c(=O)c4cc(C)cc(C)c4n3C)C2)cc1OC
Second: COc1ccc(CNC(=O)c2c(O)c3cccnc3[nH]c2=O)cc1OC
The RP-LC retention time of the first is lower: 628 s for the first, 804 s for the second.

Going from Cc1nc(-c2csc(S(=O)(=O)N3CCCC(C(=O)NCCc4ccc(Cl)cc4)C3)c2)no1 (stereo not given) to O=S(=O)(c1ccc(-c2noc(-c3cccc(F)c3)n2)cc1)N1CCOCC1, the RP-LC retention time rises from 982 s to 1090 s.

Compared with CN1C(=O)c2cc(C(=O)NCc3ccc(Cl)cc3)nn2CC1(C)C(=O)NC1CCCCC1 (stereo not given), CCCCOc1ccc(CNC(=O)C2CCN(C(=O)c3cc4ccsc4[nH]3)CC2)cc1 is higher in RP-LC retention time: 850 s for the first, 937 s for the second.

Compared with O=C(NCc1ccc(OC(F)(F)F)cc1)C1CCCN(c2nnc3ccccn23)C1 (stereo not given), Cc1ccc(NC(=O)C2CCCN(c3cc(=O)n(C)c(=O)n3C)C2)cc1 (stereo not given) is lower in RP-LC retention time: 727 s for the first, 725 s for the second.

First: CC(C)S(=O)(=O)N1CCC(CCOc2ccccc2)C1 (stereo not given)
Second: O=S(=O)(c1ccccc1)N1[C@H]2CC[C@@H]1c1cncnc1C2
The RP-LC retention time of the first is higher: 980 s for the first, 678 s for the second.

Going from Cc1ccc(C2Cn3nnc(-c4nc(-c5cccc(F)c5)no4)c3CO2)c(C)c1 (stereo not given) to COc1cccc(-c2nc(-c3cn(Cc4ccc(F)cc4)nn3)no2)c1, the RP-LC retention time falls from 1300 s to 983 s.

Going from CCC(=O)N1CCC2(CC1)NC(=O)c1ccccc1O2 to COc1ccc(C(=O)N2CCC3(CC2)NC(=O)c2cc(F)ccc2N3C)cc1, the RP-LC retention time rises from 649 s to 730 s.

Compared with O=C1CN(Cc2ccccc2)[C@H]2CS(=O)(=O)C[C@H]2N1c1ccc(Br)cc1, O=C(c1ccco1)N1CCN(c2ccc(=O)n(-c3ccccc3)n2)CC1 is lower in RP-LC retention time: 845 s for the first, 701 s for the second.

Compared with O=C1Nc2ccc(S(=O)(=O)N3CCN(c4ccccn4)CC3)cc2C1=C1CCCC1, CCCOC(=O)Cn1c(=O)oc2cc(S(=O)(=O)N3CCN(c4ccccn4)CC3)ccc21 is higher in RP-LC retention time: 662 s for the first, 703 s for the second.

Going from Cc1cc(-c2nnc(-c3ccco3)o2)c(C)n1CC(=O)NCc1ccc(Cl)cc1 to Cc1cc(C)cc(NC(=O)Cn2c(C)cc(-c3nnc(C)o3)c2C)c1, the RP-LC retention time rises from 637 s to 843 s.

First: CCOc1cccc(-c2noc(Cn3ncn4nc(-c5ccccc5Cl)cc4c3=O)n2)c1
Second: CCOc1ccccc1-c1noc(Cn2c(=O)n(CCCOC)c(=O)c3ccccc32)n1
The RP-LC retention time of the first is higher: 1250 s for the first, 1060 s for the second.

Compared with c1ccc2sc(C3(N4CCCC4)CCCCC3)cc2c1, O=c1ccc(S(=O)(=O)N2CCCCCC2)cn1Cc1ccccc1F is higher in RP-LC retention time: 799 s for the first, 936 s for the second.

Going from CC(=O)N1CCCc2cc(S(=O)(=O)N3CCC(C(=O)NCc4ccccn4)CC3)ccc21 to CC(=O)N1c2ccc(S(=O)(=O)N3CCC(C(=O)Nc4cccnc4)CC3)cc2CC1C (stereo not given), the RP-LC retention time rises from 607 s to 617 s.

Compared with CCn1cc(S(=O)(=O)N2CCN(c3ccccc3)CC2)c2cccnc21, CCn1cc(CCN2CCC(C(=O)Nc3ccccc3C)CC2)c2cccnc21 is lower in RP-LC retention time: 969 s for the first, 621 s for the second.

Going from CC(=O)NCc1csc(C2CCN(C(=O)COc3ccc(F)cc3)CC2)n1 to NC(=O)C1CCN(Cc2cc(-c3ccc(F)cc3)n[nH]2)CC1, the RP-LC retention time falls from 662 s to 571 s.

Compared with CCc1cccc(C)c1N(C(=O)Cn1c(CC)nc2ccccc21)C(C)COC (stereo not given), CCOC(=O)c1nc(Nc2cc(OC)ccc2OC)c2ccccc2n1 is higher in RP-LC retention time: 776 s for the first, 911 s for the second.

Compared with CC(=O)c1cccc(NC(=O)c2sc3ccccc3c2Cl)c1, COc1ccc(NC(=O)c2sc(-c3cn(C(C)C)c4ncccc34)nc2C)cc1 is lower in RP-LC retention time: 988 s for the first, 902 s for the second.

Compared with Cc1ccc(S(=O)(=O)N2CCC3(CC2)CCC(O)(CN2CCCC2)CC3)c(C)c1, Cn1cc(S(=O)(=O)N2CCCCC2)cc1C(=O)N1CCN(c2ccccc2F)CC1 is higher in RP-LC retention time: 602 s for the first, 961 s for the second.

Going from COc1ccc(-n2ncc3c(NC4CC4)ncnc32)cc1 to COc1ccc2oc(-c3csc(NC(=O)c4ccc(N5C(=O)CCC5=O)cc4)n3)cc2c1, the RP-LC retention time rises from 619 s to 884 s.

Going from CCOC(=O)C1=C(CN2CCN(c3ccccn3)CC2)NC(=O)NC1c1cccc(OC)c1OC (stereo not given) to COc1ccc(NC(=O)C2CCN(c3cncnc3N3CCN(C)CC3)CC2)cc1Cl, the RP-LC retention time falls from 615 s to 585 s.

Going from Cc1oc(C2CCN(C(=O)c3ccc(F)c(Cl)c3)CC2)nc1C(=O)N1CCCCC1 to O=C(CCC1CCCC1)N1CCN(c2nnc3ccc(Cl)cn23)CC1, the RP-LC retention time falls from 868 s to 832 s.

Going from Cc1ccc(NC(=O)C2CCN(S(C)(=O)=O)c3ccccc3O2)cc1C (stereo not given) to Cc1ccc(NC(=O)CN2C(=O)C3CCCCN3c3ccc(S(=O)(=O)N(C)C)cc32)c(C)c1 (stereo not given), the RP-LC retention time rises from 945 s to 994 s.

First: CCOc1cc(C(=O)N2CCCC2c2nc(-c3ccc(C)cc3)no2)cc(OCC)c1OCC (stereo not given)
Second: CCOc1ccc(-c2nc(Cc3noc(-c4cccc(OC)c4)n3)c(C)o2)cc1
The RP-LC retention time of the first is lower: 1200 s for the first, 1220 s for the second.

Compared with Cc1cc(C)c2c(N3CCCCC3)nc(C(=O)NC(C)c3cccnc3)nc2n1 (stereo not given), Cc1cc(C(=O)N2CCCCC2)c2c(=O)n(Cc3nc(-c4cccs4)oc3C)c(=O)n(C)c2n1 is higher in RP-LC retention time: 568 s for the first, 955 s for the second.

Going from Cc1noc(-c2ccnc(-n3cnc(C(=O)NCc4ccccc4F)c3)c2)n1 to O=C(Cc1nnc(-c2ccc3ncccc3c2)o1)Nc1ccc(F)c(F)c1, the RP-LC retention time falls from 833 s to 741 s.

Compared with COc1ccc2c(c1)C=C(C(=O)NCC(=O)c1cccs1)C=CO2, COc1ccc(Cl)cc1NC(=O)c1cnc2sccn2c1=O is lower in RP-LC retention time: 879 s for the first, 839 s for the second.

Going from O=C(Nc1ccccc1F)[C@@H]1COCC(=O)N1Cc1cccs1 to O=C1COc2ccccc2N1Cc1nc(-c2ccccc2)no1, the RP-LC retention time rises from 741 s to 971 s.

Compared with O=c1c2ccccc2n(Cc2nc(-c3cccc(Br)c3)no2)c(=O)n1CC1CCCO1 (stereo not given), O=c1c2oc3ccccc3c2ncn1Cc1nc(-c2ccc3c(c2)OCO3)no1 is lower in RP-LC retention time: 1150 s for the first, 909 s for the second.

Compared with c1ccc(CCNc2nc(-c3ccccc3)no2)cc1, Cc1cc(C)n2c(Nc3c(C)cccc3C)c(-c3cccc(Cl)c3)nc2n1 is lower in RP-LC retention time: 1000 s for the first, 902 s for the second.

Compared with O=C(Nc1cc(F)ccc1F)c1c(O)c2cccnc2n(-c2ccc(F)cc2)c1=O, Cc1cccc(C)c1NC(=O)CN1C(=O)NC(c2ccc(Cl)cc2)C2=C1COC2=O (stereo not given) is lower in RP-LC retention time: 1270 s for the first, 747 s for the second.

Molecule CCc1nc2cc(N3CCCC(C(=O)NC4CC4)C3)cnc2nc1CC (stereo not given) has an RP-LC retention time of 696 s.
